Measurements: ChEMBL document CHEMBL1221222, “Analysis of the eukaryotic prenylome by isoprenoid affinity tagging” (Nat Chem Biol, 2009)
Calls of active or inactive are those of the source. The rule behind the calls is not given here.

Columns and labels:
[1] = Binding affinity to FTase assessed as prenylation of Ki-Ras by SDS PAGE
[2] = test system: Protein farnesyltransferase subunit beta (Homo sapiens), P49356 [Y154T]; test: Binding affinity to FTase Y154T mutant assessed as prenylation of Ki-Ras by ESI-MS analysis
[3] = test system: Geranylgeranyl transferase type-1 subunit beta (Homo sapiens), P53609 [Y126T]; test: Binding affinity to GGTase-1 Y126T mutant assessed as prenylation of RhoA GTPase by Western blot method
[4] = test system: Protein farnesyltransferase subunit beta (Homo sapiens), P49356 [W102T,Y154T]; test: Binding affinity to FTase W102T/Y154T mutant assessed as prenylation of CFP-CAAX by Western blot analysis
COS-7 [5] = test: Binding affinity to GGTase-1 F53Y/Y126T mutant in african green monkey COS7 lysate assessed as protein prenylation by two-dimensional SDS-PAGE method
[6] = test system: Protein farnesyltransferase subunit beta (Homo sapiens), P49356 [W102T,Y365F]; test: Binding affinity to FTase W102T/Y365F mutant assessed as prenylation of Ki-Ras by Western blot analysis
COS-7 [7] = test: Binding affinity to RabGGTase in african green monkey COS7 lysate assessed as prenylation of Rab by two-dimensional SDS-PAGE method
[8] = test system: Protein farnesyltransferase subunit beta (Homo sapiens), P49356 [W102T,Y154T,Y205T]; test: Binding affinity to FTase W102T/Y154T/Y205T mutant in african green monkey COS7 lysate assessed as prenylation of CFP-CAAX by Western blot method; conditions: COS-7
[9] = test system: Protein farnesyltransferase subunit beta (Homo sapiens), P49356 [W102T]; test: Binding affinity to FTase W102T mutant assessed as prenylation of CFP-CAAX by Western blot analysis
[10] = Binding affinity to RabGGTase assessed as prenylation of Rab27 by SDS PAGE
[11] = Binding affinity to GGTase-1 by NBD fluorescence assay
[12] = Binding affinity to GGTase-1 F53Y/Y126T mutant assessed as prenylation of dansyl-labeled GCVLL by fluorescence based assay
[13] = Binding affinity to GGTase-1 F53Y/Y126T mutant assessed as prenylation of RhoA GTPase by Western blot method
[14] = test system: Protein farnesyltransferase subunit beta (Homo sapiens), P49356 [W102T]; test: Binding affinity to FTase W102T mutant assessed as prenylation of Ki-Ras by ESI-MS analysis
[15] = test system: Protein farnesyltransferase subunit beta (Homo sapiens), P49356 [W102T,Y154T,Y205T]; test: Binding affinity at FTase W102T/Y154T/Y205T mutant in african green monkey COS7 lysate assessed as protein prenylation by two-dimensional SDS-PAGE method; conditions: COS-7
[16] = test system: Protein farnesyltransferase subunit beta (Homo sapiens), P49356 [Y154T]; test: Binding affinity to FTase Y154T mutant assessed as prenylation of CFP-CAAX by Western blot analysis
[17] = test system: Geranylgeranyl transferase type-1 subunit beta (Homo sapiens), P53609 [F52Y,Y126T]; test: Binding affinity to GGTase-1 F52Y/Y126T mutant assessed as prenylation of RhoA GTPase by Western blot method
[18] = test system: Protein farnesyltransferase subunit beta (Homo sapiens), P49356 [W102T]; test: Binding affinity to FTase W102T mutant assessed as prenylation of CFP-CAAX by ESI-MS analysis
[19] = Binding affinity to RabGGTase by NBD fluorescence assay
[20] = test system: Geranylgeranyl transferase type-1 subunit beta (Homo sapiens), P53609 [F52Y,F53Y,Y126T]; test: Binding affinity to GGTase-1 F52Y/F53Y/Y126T mutant in african green monkey COS7 lysate assessed as prenylation of RhoA by Western blot method; conditions: COS-7
[21] = Binding affinity to GGTase-1 F53Y/Y126T mutant assessed as prenylation of dansyl-labeled GCVLS by fluorescence based assay
[22] = test system: Protein farnesyltransferase subunit beta (Homo sapiens), P49356 [W102T,Y154T]; test: Binding affinity to FTase W102T/Y154T mutant assessed as prenylation of Ki-Ras by Western blot analysis
[23] = test system: Protein farnesyltransferase subunit beta (Homo sapiens), P49356 [W102T,Y365F]; test: Binding affinity to FTase W102T/Y365F mutant assessed as prenylation of CFP-CAAX by Western blot analysis
[24] = test system: Protein farnesyltransferase subunit beta (Homo sapiens), P49356 [Y154T]; test: Binding affinity to FTase Y154T mutant assessed as prenylation of Ki-Ras by Western blot analysis
[25] = test system: Protein farnesyltransferase subunit beta (Homo sapiens), P49356 [W102T,Y154T]; test: Binding affinity to FTase W102T/Y154T mutant in african green monkey COS7 lysate assessed as prenylation of CFP-CAAX by Western blot method; conditions: COS-7
[26] = Binding affinity to GGTase-1 assessed as prenylation of RhoA by SDS PAGE
[27] = test system: Protein farnesyltransferase subunit beta (Homo sapiens), P49356 [W102T,Y154T]; test: Binding affinity to FTase W102T/Y154T mutant assessed as prenylation of CFP-CAAX by ESI-MS analysis
[28] = test system: Protein farnesyltransferase subunit beta (Homo sapiens), P49356 [W102T]; test: Binding affinity to FTase W102T mutant assessed as prenylation of Ki-Ras by Western blot analysis
[29] = test system: Protein farnesyltransferase subunit beta (Homo sapiens), P49356 [Y154T]; test: Binding affinity to FTase Y154T mutant assessed as prenylation of CFP-CAAX by ESI-MS analysis
COS-7 [30] = test: Binding affinity to wild type FTase in african green monkey COS7 lysate assessed as prenylation of CFP-CAAX by Western blot method
[31] = Binding affinity to RabGGTase assessed as prenylation of Rab7 by SDS PAGE
[32] = test system: Protein farnesyltransferase subunit beta (Homo sapiens), P49356 [W102T,Y154T]; test: Binding affinity to FTase W102T/Y154T mutant assessed as prenylation of Ki-Ras by ESI-MS analysis
[33] = Binding affinity to FTase by X-ray crystallography
[34] = test system: Protein farnesyltransferase subunit beta (Homo sapiens), P49356 [W102T,Y365F]; test: Binding affinity to FTase W102T/Y365F mutant assessed as prenylation of Ki-Ras by ESI-MS analysis
[35] = test system: Protein farnesyltransferase subunit beta (Homo sapiens), P49356 [W102T,Y365F]; test: Binding affinity to FTase W102T/Y365F mutant assessed as prenylation of CFP-CAAX by ESI-MS analysis
COS-7 [36] = test: Binding affinity to GGTase-1 F53Y/Y126T mutant in african green monkey COS7 lysate assessed as prenylation of RhoA by Western blot method

Sequence of Protein farnesyltransferase subunit beta (Homo sapiens), P49356 [W102T] (P49356 whole entry W102T): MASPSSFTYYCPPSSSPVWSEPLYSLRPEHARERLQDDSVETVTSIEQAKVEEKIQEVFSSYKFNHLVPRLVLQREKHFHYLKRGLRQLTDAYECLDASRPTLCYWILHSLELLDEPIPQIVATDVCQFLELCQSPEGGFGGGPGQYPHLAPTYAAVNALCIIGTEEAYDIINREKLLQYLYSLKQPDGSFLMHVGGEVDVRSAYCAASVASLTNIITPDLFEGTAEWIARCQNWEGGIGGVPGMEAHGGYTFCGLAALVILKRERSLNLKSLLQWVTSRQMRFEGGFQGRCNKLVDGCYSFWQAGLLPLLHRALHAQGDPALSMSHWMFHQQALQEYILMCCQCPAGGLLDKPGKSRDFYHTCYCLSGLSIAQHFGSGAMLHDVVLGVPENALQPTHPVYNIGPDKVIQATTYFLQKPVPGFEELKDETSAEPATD
Sequence of Protein farnesyltransferase subunit beta (Homo sapiens), P49356 [Y154T] (P49356 whole entry Y154T): as the sequence (P49356 whole entry W102T) above, with T102W, Y154T counted along it
Sequence of Protein farnesyltransferase subunit beta (Homo sapiens), P49356 [W102T,Y365F] (P49356 whole entry W102T/Y365F): as the sequence (P49356 whole entry W102T) above, with Y365F counted along it
Sequence of Protein farnesyltransferase subunit beta (Homo sapiens), P49356 [W102T,Y154T] (P49356 whole entry W102T/Y154T): as the sequence (P49356 whole entry W102T) above, with Y154T counted along it
Sequence of Protein farnesyltransferase subunit beta (Homo sapiens), P49356 [W102T,Y154T,Y205T] (P49356 whole entry W102T/Y154T/Y205T): as the sequence (P49356 whole entry W102T) above, with Y154T, Y205T counted along it
Sequence of Geranylgeranyl transferase type-1 subunit beta (Homo sapiens), P53609 [Y126T] (P53609 whole entry Y126T): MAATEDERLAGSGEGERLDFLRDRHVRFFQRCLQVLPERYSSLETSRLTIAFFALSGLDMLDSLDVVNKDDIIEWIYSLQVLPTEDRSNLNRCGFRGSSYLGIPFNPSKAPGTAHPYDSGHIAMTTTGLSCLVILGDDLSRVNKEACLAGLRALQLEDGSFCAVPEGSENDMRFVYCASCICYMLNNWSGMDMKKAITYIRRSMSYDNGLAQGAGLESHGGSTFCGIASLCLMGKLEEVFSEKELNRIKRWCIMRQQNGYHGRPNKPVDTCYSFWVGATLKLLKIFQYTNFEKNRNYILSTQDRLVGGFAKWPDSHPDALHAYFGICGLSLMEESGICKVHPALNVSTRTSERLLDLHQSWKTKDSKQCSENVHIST
Sequence of Geranylgeranyl transferase type-1 subunit beta (Homo sapiens), P53609 [F52Y,Y126T] (P53609 whole entry F52Y/Y126T): as the sequence (P53609 whole entry Y126T) above, with F52Y counted along it
Sequence of Geranylgeranyl transferase type-1 subunit beta (Homo sapiens), P53609 [F52Y,F53Y,Y126T] (P53609 whole entry F52Y/F53Y/Y126T): as the sequence (P53609 whole entry Y126T) above, with F52Y, F53Y counted along it

C/C(=C\COP(=O)(O)OP(=O)(O)O)CC/C=C(\C)CNC(=O)CCCC[C@@H]1SC[C@@H]2NC(=O)N[C@@H]21 [biotin-geranylpyrophosphate]
Activity [1]: inactive | Activity [2]: inactive | Activity [3]: Active | Activity [4]: Active | Activity (COS-7 [5]): Active | Activity [6]: inactive | Activity (COS-7 [7]): Active | Activity [8]: Active | Activity [9]: inactive | Activity [10]: Active | Kd [11]: 45 nM | Activity [12]: inactive | Activity [13]: Active | Activity [14]: inactive | Activity [15]: Active | Activity [16]: inactive | Activity [17]: inactive | Activity [18]: inactive | Kd [19]: 2.2 nM | Activity [20]: Active | Activity [21]: inactive | Activity [22]: Active | Activity [23]: inactive | Activity [24]: inactive | Activity [25]: Active | Activity [26]: inactive | Activity [27]: Active | Activity [28]: inactive | Activity [29]: inactive | Activity (COS-7 [30]): Active | Activity [31]: Active | Activity [32]: Active | Activity [33]: Active | Activity [34]: inactive | Activity [35]: inactive | Activity (COS-7 [36]): Active
